For orientation: IC50 means the concentration at which inhibition is half-maximal. A word on the inhibition: it is the share of the control response that was lost under treatment.

One data set concerns the target T1, ETA Receptor (Rattus norvegicus, UniProt P26684).
T1 construct: endogenous in cells; host or cells: MMQ rat pituitary cells (membranes)
T1 sequence (P26684 21-426): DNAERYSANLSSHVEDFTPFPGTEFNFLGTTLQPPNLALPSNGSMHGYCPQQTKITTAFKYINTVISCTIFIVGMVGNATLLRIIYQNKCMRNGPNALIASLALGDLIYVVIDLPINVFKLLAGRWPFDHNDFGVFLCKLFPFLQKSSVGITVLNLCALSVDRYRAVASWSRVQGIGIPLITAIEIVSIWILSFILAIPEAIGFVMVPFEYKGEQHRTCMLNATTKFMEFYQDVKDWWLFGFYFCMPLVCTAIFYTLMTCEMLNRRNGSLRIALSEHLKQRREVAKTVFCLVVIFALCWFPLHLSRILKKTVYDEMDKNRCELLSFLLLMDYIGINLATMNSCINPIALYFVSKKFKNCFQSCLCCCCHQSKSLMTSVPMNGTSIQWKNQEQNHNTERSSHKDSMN
The data set is described as follows: [125I]ET-1 binding to membranes from MMQ cells (ETA receptor binding assay, Table 4). The note with it: test compound at 1 μM, 0.1 nM [125I]ET-1, MMQ cell membranes, 4 hours at 25° C.

Data set [1] has as its system ET-1-induced phosphatidylinositol hydrolysis in MMQ cells. As to the kind of experiment: Determination of ET-1-induced phosphatidylinositol (PI) hydrolysis in MMQ cells. The data set is classed as cell-based, rat. The settings on record: 1 nM ET-1 challenge, read-out: IC50 (inhibition of ET-induced increase in PI turnover). The method, then:
MMQ cells (0.4×10^6 cells/mL) were labeled with 10 μCi/mL of [^3H]myo-inositol in RPMI for 16 hours. The cells were washed with PBS, then incubated with Buffer A containing protease inhibitors and 10 mM LiCl for 60 minutes. The cells were then incubated with test compounds for 5 minutes, and then challenged with 1 nM ET-1. ET-1 challenge was terminated by the addition of 1.5 mL of 1:2 (v/v) chloroform-methanol. Total inositol phosphates were extracted after adding chloroform and water to give final proportions of 1:1:0.9 (v/v/v) chloroform-methanol-water as described by Berridge (Biochem. J. 206 587–595 (1982)). The upper aqueous phase (1 mL) was retained and a small portion (100 μL) was counted. The rest of the aqueous sample was analyzed by batch chromatography using anion-exchange resin AG1-X8 (Bio-Rad). […] The results of the above study clearly indicate that the compounds act as functional ET antagonists.

Data set [2] can be described thus: Determination of plasma protein binding (ultrafiltration, HPLC). The data set is classed as in vitro ADME. Also on record: fraction unbound at 1 h: dose or concentration left out as unconfirmed. The note with it: fresh plasma, 1 hour at room temperature. The method, then:
A stock solution of the test compound in 50% ethanol (2 mg/mL) was diluted 10× into PBS. A 0.4 mL sample of this secondary stock solution was added to 3.6 mL of fresh plasma, and incubated at room temperature for 1 hour. A 1 mL sample of this incubation mixture was transferred to a Centrifree ultrafiltration tube. The sample was centrifuged in a fixed-bucket rotor for approximately 2 min and the filtrate was discarded. The sample was centrifuged for another 15–30 min. A 100 μL sample of the ultrafiltrate was transfered to a micro HPLC sample vial containing […] of HPLC mobile phase and mixed thoroughly. A 50 μL sample was injected and the concentration of drug in the ultrafiltrate was determined by HPLC analysis compared against a standard sample prepared identically in the absence of plasma. Ultrafiltrate concentrations are calculated from a calibration curve. Protein binding is calculated according to the equation: % PB=[1−(Cu/Ci)]*100%
where Cu is the ultrafiltrate concentration and Ci is the initial plasma concentration.

For data set [3], the target named is T2, human ETA receptor (Homo sapiens, UniProt P25101).
T2 construct: expressed in transfected cells; host or cells: CHO cells, permanently transfected
T2 sequence (P25101 21-427): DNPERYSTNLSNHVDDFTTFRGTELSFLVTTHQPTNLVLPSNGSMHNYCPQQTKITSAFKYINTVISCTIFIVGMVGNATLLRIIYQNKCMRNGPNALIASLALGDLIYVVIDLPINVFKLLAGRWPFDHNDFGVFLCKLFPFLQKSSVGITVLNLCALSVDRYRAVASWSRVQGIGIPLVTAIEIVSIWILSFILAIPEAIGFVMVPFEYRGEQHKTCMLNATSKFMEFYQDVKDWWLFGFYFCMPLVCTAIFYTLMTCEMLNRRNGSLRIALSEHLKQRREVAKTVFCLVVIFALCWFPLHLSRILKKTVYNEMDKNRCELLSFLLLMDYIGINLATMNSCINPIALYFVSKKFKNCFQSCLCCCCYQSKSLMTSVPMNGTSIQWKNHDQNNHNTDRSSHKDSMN
As to the kind of experiment: Albumin-induced binding shift study: [125I]ET-1 binding in presence of human serum albumin. The note with it: 0%, 0.2%, 1% or 5% HSA. The method, then: Protocol for Albumin-induced binding shift studies: Binding assays were performed in 96-well microtiter plates precoated with 0.1% BSA unless otherwise indicated. Membranes were diluted in Buffer B (20 mM Tris, 100 mM NaCl, 10 mM MgCl2, pH 7.4, 0.1 mM PMSF, […] Pepstatin A, 0.025% bacitracin and 3 mM EDTA) to a final concentration of 0.05 mg/ml of protein. Varying concentrations of human serum albumin (HSA) were added as indicated. In competition studies, membranes were incubated with 0.1 nM of [^125I]ET in Buffer B (final volume: 0.2 ml) in the presence of increasing concentrations of unlabeled test ligands for 4 hours at 25° C. After incubation, unbound ligands were separated from bound ligands by vacuum filtration using glass-fiber filter strips in PHD cell harvesters (Cambridge Technology, Inc., Watertown, MA), followed by washing the filter strips with saline (1 ml) for three times. Nonspecific binding was determined in the presence of 1 μM ET-1. Inhibition of [^125]ET-1 binding to human ETA receptor by ETA antagonists. Each curve was determined in the presence of either 0%, 0.2%, 1%, or 5% HSA, and assays were performed as described above. The results are expressed as % of control binding, with [^125I]ET-1 binding in the absence of antagonist defining 100%. Each point represents the mean (±S.D.) of three determinations.

Data set [4] is described as follows: pH-solubility profile: maximum solubility in aqueous media at varying pH. The data set is classed as physicochemical. The text has this: Such increased aqueous solubility, coupled with the enhanced potency resulting from decreased protein binding, might make such compounds preferred for development as parenteral agents.
For data set [5], the target named is T3, ETA receptor in MMQ cells (rET-A) (Rattus norvegicus, UniProt P26684).
T3 construct: endogenous in cells; host or cells: MMQ rat pituitary cells (membranes)
T3 sequence (P26684 21-426): T1 sequence (P26684 21-426)
The data set is described as follows: ETA/ETB selectivity: (125I)ET-1 competition binding, ETA assay in MMQ cell membranes (rET-A). The note with it: MMQ cell membranes; for IC50: 0.1 nM (125I)ET-1, read-out: rET-A IC50. The method, then:
(§1) The mixture was centrifuged at 1000×g for 10 min. The supernatant was collected and centrifuged at 60,000×g for 60 min. The precipitate was resuspended in 20 mM Tris, pH 7.4 containing protease inhibitor and centrifuged again. The final membrane pellet was resuspended in 20 mM Tris, pH 7.4 containing protease inhibitors and stored at −80° C. until used. Protein content was determined by the Bio-Rad dye-binding protein assay.
(§2) Binding assays were performed in 96-well microtiter plates pretreated with 0.1% BSA. […] After incubation, unbound ligands were separated from bound ligands by a vacuum filtration method using glass-fiber filter strips in PHD cell harvesters (Cambridge Technology, Inc., MA), washing the filter strips three times with saline (1 mL). Nonspecific binding was determined in the presence of 1 μM ET-1. IC50 values are calculated using an average of at least two separate determinations.

For data set [6], the target named is T4, ETB receptors of porcine cerebellar tissues (pET-B) (Sus scrofa, UniProt P35463).
T4 construct: porcine cerebellar tissues (known to contain ETB receptors); from tissue; host or cells: porcine cerebellum (membranes)
T4 sequence (P35463 27-443): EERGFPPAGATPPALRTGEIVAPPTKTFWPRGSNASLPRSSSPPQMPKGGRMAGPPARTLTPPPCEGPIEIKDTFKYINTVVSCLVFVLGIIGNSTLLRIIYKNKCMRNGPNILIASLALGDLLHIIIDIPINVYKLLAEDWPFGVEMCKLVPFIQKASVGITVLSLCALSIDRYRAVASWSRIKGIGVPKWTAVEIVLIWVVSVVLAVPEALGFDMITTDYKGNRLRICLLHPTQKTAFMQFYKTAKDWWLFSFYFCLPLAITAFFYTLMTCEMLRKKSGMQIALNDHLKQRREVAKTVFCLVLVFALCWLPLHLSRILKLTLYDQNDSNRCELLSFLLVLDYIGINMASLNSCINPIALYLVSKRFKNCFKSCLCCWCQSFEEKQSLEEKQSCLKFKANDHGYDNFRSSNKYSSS
The data set is described as follows: ETA/ETB selectivity: (125I)ET-3 competition binding, ETB assay in porcine cerebellum membranes (pET-B). The settings on record: porcine cerebellum membranes; 0.1 nM (125I)ET-3; read-out: pET-B IC50. How it is done: as §1, §2

Data set [7] addresses T2, human ETA receptor. The data set is described as follows: ETA/ETB selectivity: (125I)ET-1 competition binding, CHO cells transfected with human ETA receptor (hET-A). The method, then: as §1, §2
The target in the next data set is T5, human ETB receptor (Homo sapiens, UniProt P24530).
T5 construct: expressed in transfected cells; host or cells: CHO cells, permanently transfected
T5 sequence (P24530 27-442): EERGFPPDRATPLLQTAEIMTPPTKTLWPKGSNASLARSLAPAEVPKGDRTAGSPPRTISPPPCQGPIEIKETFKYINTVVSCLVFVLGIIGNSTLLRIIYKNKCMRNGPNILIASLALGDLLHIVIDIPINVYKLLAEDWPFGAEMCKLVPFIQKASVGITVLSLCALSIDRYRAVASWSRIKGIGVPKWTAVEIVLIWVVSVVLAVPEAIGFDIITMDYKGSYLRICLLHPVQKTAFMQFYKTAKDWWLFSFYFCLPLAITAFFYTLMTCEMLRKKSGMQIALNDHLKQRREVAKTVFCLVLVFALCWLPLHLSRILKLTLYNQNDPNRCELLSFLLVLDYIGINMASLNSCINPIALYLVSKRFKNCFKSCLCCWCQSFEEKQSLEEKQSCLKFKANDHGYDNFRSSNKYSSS
As to the kind of experiment: ETA/ETB selectivity: (125I)ET-3 competition binding, CHO cells transfected with human ETB receptor (hET-B). How it is done:
MMQ cells, porcine cerebellar tissues (known to contain ETB receptors) and chinese hamster ovary cells (CHO) permanently transfected with the human ETA or ETB receptor were homogenized in 25 ml of 10 mM Hepes (pH 7.4) containing 0.25 M sucrose and a protease inhibitor [50 mM EDTA, 0.1 mM PMSF, 5 μg/ml Pepstatin A, and 0.025% Bacitracin] using a micro ultrasonic cell disrupter. The mixture was centrifuged at 1000×g for 10 min. The supernatant was collected and centrifuged at 60,000×g for 60 min. The precipitate was resuspended in 20 mM Tris, pH 7.4 containing protease inhibitor and centrifuged again. The final membrane pellet was resuspended in 20 mM Tris, pH 7.4 containing protease inhibitors and stored at −80° C. until used. Protein content was determined by the Bio-Rad dye-binding protein assay.
Binding assays were performed in 96-well microtiter plates pretreated with 0.1% BSA. Membranes prepared from cells were diluted 100 fold in Buffer B (20 mM Tris, 100 mM NaCl, 10 mM MgCl2, pH 7.4, with 0.2% BSA, 0.1 mM PMSF, 5 μg/mL Pepstatin A, 0.025% bacitracin, and 50 mM EDTA) to a final concentration of 0.2 mg/mL of protein. In competition binding studies, membranes (0.02 mg) were incubated with 0.1 nM of (^125I)ET-1 (for ETA assay in MMQ or CHO cells transfected with human ETA receptor) or (^125I)ET-3 (for ETB assay in porcine cerebellum or CHO cells transfected with human ETB receptor) in Buffer B (final volume: 0.2 mL) in the presence of increasing concentrations of the test compound for 3 hours at 25° C. After incubation, unbound ligands were separated from bound ligands by a vacuum filtration method using glass-fiber filter strips in PHD cell harvesters (Cambridge Technology, Inc., MA), washing the filter strips three times with saline (1 mL). Nonspecific binding was determined in the presence of 1 μM ET-1. IC50 values are calculated using an average of at least two separate determinations.

Each structure is given as a SMILES string. Where two headings read alike, the source gives them in different places.

Consider `CCCCN(CCCC)C(=O)CN1C[C@H](c2ccc3c(c2)OCO3)[C@@H](C(=O)O)[C@@H]1c1ccc(OC)cc1` (relative stereo) [Example 43, trans,trans-2-(4-Methoxyphenyl)-4-(1,3-benzodioxol-5-yl)-1-(N,N-di(n-butyl)aminocarbonylmethyl)-pyrrolidine-3-carboxylic acid], for which, on ETA Receptor, the “% Inhibition of ETA at 1 μM” value worked out at 99.2%. The IC50 in data set [1] was determined as 0.1 nM. Besides, the “percent of bound compound (plasma protein binding, % PB)” value is given as above 98% in data set [2] and above 99.5% in data set [2] (listed as Example #43). Further, at human ETA receptor [3], the “shift of the binding curve in the presence of increasing albumin levels” value is “rightward shift of the binding curve (toward decreasing potency)”. Further, the maximum solubility in data set [4] (pH 5.1, about 25° C.) was 80 µg/mL; in data set [4] (pH 6.5, about 25° C.), 510 µg/mL; in data set [4] (pH 7.1, about 25° C.) it was 990 µg/mL; in data set [4] (pH 7.6, about 25° C.), 1140 µg/mL.

Take `CC=CC(C)(C)CC1C(C(=O)O)C(c2cc(OC)c3c(c2)OCO3)CN1CC(=O)N(CCCC)CCCC` (stereo not shown) [Example 553]: the IC50 in data set [1] (Rattus norvegicus) worked out at 0.4 nM; in data set [5], 0.26 nM; in data set [6], 42400 nM; on human ETA receptor [7], 0.29 nM; at human ETB receptor, 39500 nM. In data set [5] (1 μM test compound), this compound yielded an inhibition at 1 µM of 100%.

For `CCCCN(C(=O)CN1CC(c2ccc3c(c2)OCO3)C(C(=O)O)C1c1ccc(OC)cc1)c1cccc(CN)c1` (stereo not shown) [compound 532], the inhibition at 1 µM at ETA Receptor (read-out: % Inhibition of ETA at 1 μM) turned out to be 100%. For the same compound, the values for the IC50 in data set [5] and in [6] were 5.1 nM and 3200 nM, respectively. The fraction unbound at 1 h in data set [2] (read-out: percent of bound compound (plasma protein binding, % PB) (converted)) is 0.032.

These data come from US7208517B1, “Endothelin antagonists” (Abbott Labortories, priority 1994, dated 2007).
